This series is described as follows: Degradation pathway for allopregnanolone in SBECD formulations. The series is classed as physicochemical. From the text: FIG. 1 summarizes the two major degradation pathways found for allopregnanolone in SBECD formulations.

`CC(=O)[C@H]1CC[C@H]2[C@@H]3CC[C@H]4C[C@H](O)CC[C@]4(C)[C@H]3CC[C@]12C` [allopregnanolone, 3 alpha-hydroxy-5 alpha-pregnan-20-one]: the major degradation pathway entry (pH of ~6 or less) is “epimerization of allopregnanolone to compound 1269” and the major degradation pathway result (pH of ~6 or more) is “oxidation of allopregnanolone to compound 136”.

Values taken from patent US20190350944A1, “NEUROACTIVE STEROID SOLUTIONS AND THEIR METHODS OF USE” (Sage Therapeutics, Inc., priority 2015, published 2019).
